Source: PubChem BioAssay (NCI)
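1) Cells in 96-well plates. 2) Compound, 48 h, 5 concentrations. 3) Linear interpolation between surrounding doses. 4) Unreached endpoint = highest concentration. TGI is the concentration that stops growth completely.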

Experiments:
Assay in all cases: DTP human tumour cell line panel, 48 h
786-0 renal = tested on: 786-0 renal
A498 renal = tested on: A498 renal
A549 NSCLC = tested on: A549 NSCLC
ACHN renal = tested on: ACHN renal
BT-549 breast = tested on: BT-549 breast
CCRF-CEM leukemia = tested on: CCRF-CEM leukemia
COLO 205 colon = tested on: COLO 205 colon
DU-145 prostate = tested on: DU-145 prostate
EKVX NSCLC = tested on: EKVX NSCLC
HCC-2998 colon = tested on: HCC-2998 colon
HCT-116 colon = tested on: HCT-116 colon
HCT-15 colon = tested on: HCT-15 colon
HL-60(TB) leukemia = tested on: HL-60(TB) leukemia
HOP-62 NSCLC = tested on: HOP-62 NSCLC
HOP-92 NSCLC = tested on: HOP-92 NSCLC
HS 578T breast = tested on: HS 578T breast
HT29 colon = tested on: HT29 colon
IGROV1 ovarian = tested on: IGROV1 ovarian
K-562 leukemia = tested on: K-562 leukemia
KM12 colon = tested on: KM12 colon
LOX IMVI melanoma = tested on: LOX IMVI melanoma
M14 melanoma = tested on: M14 melanoma
MALME-3M melanoma = tested on: MALME-3M melanoma
MCF7 breast = tested on: MCF7 breast
MDA-MB-231 breast = tested on: MDA-MB-231 breast
MDA-MB-435 = tested on: MDA-MB-435
MDA-N = tested on: MDA-N
MOLT-4 leukemia = tested on: MOLT-4 leukemia
NCI-H226 lung = tested on: NCI-H226 lung
NCI-H23 lung = tested on: NCI-H23 lung
NCI-H460 lung = tested on: NCI-H460 lung
NCI-H522 lung = tested on: NCI-H522 lung
NCI/ADR-RES ovarian = tested on: NCI/ADR-RES ovarian
OVCAR-3 ovarian = tested on: OVCAR-3 ovarian
OVCAR-4 ovarian = tested on: OVCAR-4 ovarian
OVCAR-5 ovarian = tested on: OVCAR-5 ovarian
OVCAR-8 ovarian = tested on: OVCAR-8 ovarian
PC-3 prostate = tested on: PC-3 prostate
RPMI-8226 leukemia = tested on: RPMI-8226 leukemia
RXF 393 renal = tested on: RXF 393 renal
SF-268 CNS = tested on: SF-268 CNS
SF-295 CNS = tested on: SF-295 CNS
SF-539 CNS = tested on: SF-539 CNS
SK-MEL-2 melanoma = tested on: SK-MEL-2 melanoma
SK-MEL-28 melanoma = tested on: SK-MEL-28 melanoma
SK-MEL-5 melanoma = tested on: SK-MEL-5 melanoma
SK-OV-3 ovarian = tested on: SK-OV-3 ovarian
SN12C renal = tested on: SN12C renal
SNB-19 CNS = tested on: SNB-19 CNS
SNB-75 CNS = tested on: SNB-75 CNS
SR leukemia = tested on: SR leukemia
SW-620 colon = tested on: SW-620 colon
T-47D breast = tested on: T-47D breast
TK-10 renal = tested on: TK-10 renal
U251 CNS = tested on: U251 CNS
UACC-257 melanoma = tested on: UACC-257 melanoma
UACC-62 melanoma = tested on: UACC-62 melanoma
UO-31 renal = tested on: UO-31 renal
CAKI-1 renal = tested on: CAKI-1 renal

With `CCCCOc1ccc(NC(N)=Nc2ccc(Cl)cc2)cc1` as the compound, how does the TGI (786-0 renal) read?
The TGI was 23.2 µM.

What about the TGI (A498 renal) of the same compound?
Its TGI is 14.5 µM.

And the TGI (A549 NSCLC)?
The TGI was 10.3 µM.

And the TGI (ACHN renal)?
The TGI was 12.7 µM.

What about the TGI (BT-549 breast) of the same compound?
Its TGI is 23.4 µM.

What about the TGI (CCRF-CEM leukemia) of the same compound?
Its TGI is greater than 35.7 µM.

And the TGI (COLO 205 colon)?
The TGI was 0.26 µM.

What about the TGI (DU-145 prostate) of the same compound?
The TGI was 13.6 µM.

And the TGI (EKVX NSCLC)?
The TGI was 14.7 µM.

And the TGI (HCC-2998 colon)?
The TGI was 2.64 µM.

What about the TGI (HCT-116 colon) of the same compound?
The TGI was 12.4 µM.

What about the TGI (HCT-15 colon) of the same compound?
Its TGI is 23.1 µM.

And the TGI (HL-60(TB) leukemia)?
Its TGI is 22.5 µM.

And the TGI (HOP-62 NSCLC)?
The TGI was 2.86 µM.

What about the TGI (HOP-92 NSCLC) of the same compound?
The TGI was 16 µM.

And the TGI (HS 578T breast)?
The TGI was 21 µM.

And the TGI (HT29 colon)?
The TGI was 11.3 µM.

And the TGI (IGROV1 ovarian)?
The TGI was 21.3 µM.

And the TGI (K-562 leukemia)?
The TGI was 11.6 µM.

What about the TGI (KM12 colon) of the same compound?
The TGI was 26.1 µM.

What about the TGI (LOX IMVI melanoma) of the same compound?
Its TGI is 15.1 µM.

And the TGI (M14 melanoma)?
The TGI was 11.6 µM.

What about the TGI (MALME-3M melanoma) of the same compound?
The TGI was 8.34 µM.

What about the TGI (MCF7 breast) of the same compound?
The TGI was 4.2 µM.

What about the TGI (MDA-MB-231 breast) of the same compound?
Its TGI is 27.2 µM.

And the TGI (MDA-MB-435)?
The TGI was 23.4 µM.

What about the TGI (MDA-N) of the same compound?
The TGI was 19.5 µM.

What about the TGI (MOLT-4 leukemia) of the same compound?
Its TGI is greater than 42 µM.

And the TGI (NCI-H226 lung)?
Its TGI is 29 µM.

And the TGI (NCI-H23 lung)?
The TGI was 17.3 µM.

And the TGI (NCI-H460 lung)?
Its TGI is 8.91 µM.

What about the TGI (NCI-H522 lung) of the same compound?
Its TGI is 16.5 µM.

And the TGI (NCI/ADR-RES ovarian)?
Its TGI is 18.9 µM.

And the TGI (OVCAR-3 ovarian)?
Its TGI is 22.7 µM.

What about the TGI (OVCAR-4 ovarian) of the same compound?
Its TGI is 17.5 µM.

What about the TGI (OVCAR-5 ovarian) of the same compound?
Its TGI is 19.9 µM.

What about the TGI (OVCAR-8 ovarian) of the same compound?
The TGI was 25 µM.

What about the TGI (PC-3 prostate) of the same compound?
The TGI was 18.3 µM.

And the TGI (RPMI-8226 leukemia)?
Its TGI is greater than 49.5 µM.

What about the TGI (RXF 393 renal) of the same compound?
The TGI was 25.5 µM.

And the TGI (SF-268 CNS)?
Its TGI is 12.9 µM.

And the TGI (SF-295 CNS)?
The TGI was 6.34 µM.

What about the TGI (SF-539 CNS) of the same compound?
The TGI was 6.52 µM.

And the TGI (SK-MEL-2 melanoma)?
The TGI was 9.73 µM.

What about the TGI (SK-MEL-28 melanoma) of the same compound?
The TGI was 26.7 µM.

And the TGI (SK-MEL-5 melanoma)?
The TGI was 2.1 µM.

And the TGI (SK-OV-3 ovarian)?
The TGI was 22.7 µM.

And the TGI (SN12C renal)?
Its TGI is 15.9 µM.

What about the TGI (SNB-19 CNS) of the same compound?
The TGI was 20 µM.

What about the TGI (SNB-75 CNS) of the same compound?
The TGI was 15.3 µM.

And the TGI (SR leukemia)?
The TGI was 47.6 µM.

What about the TGI (SW-620 colon) of the same compound?
Its TGI is 16.1 µM.

And the TGI (T-47D breast)?
The TGI was 18.9 µM.

And the TGI (TK-10 renal)?
Its TGI is 18 µM.

What about the TGI (U251 CNS) of the same compound?
The TGI was 21.5 µM.

And the TGI (UACC-257 melanoma)?
Its TGI is 5.21 µM.

And the TGI (UACC-62 melanoma)?
Its TGI is 26 µM.

What about the TGI (UO-31 renal) of the same compound?
Its TGI is 9.6 µM.

How did the TGI (786-0 renal) turn out when `N#Cc1nc(-c2cc([N+](=O)[O-])cc([N+](=O)[O-])c2)oc1N` was run?
Its TGI is greater than 10 µM.

What about the TGI (A549 NSCLC) of the same compound?
The TGI was greater than 10 µM.

And the TGI (ACHN renal)?
Its TGI is greater than 10 µM.

What about the TGI (BT-549 breast) of the same compound?
The TGI was greater than 10 µM.

What about the TGI (CAKI-1 renal) of the same compound?
Its TGI is greater than 10 µM.

And the TGI (CCRF-CEM leukemia)?
The TGI was greater than 10 µM.

And the TGI (COLO 205 colon)?
The TGI was greater than 10 µM.

What about the TGI (DU-145 prostate) of the same compound?
The TGI was greater than 10 µM.

What about the TGI (EKVX NSCLC) of the same compound?
Its TGI is greater than 10 µM.

What about the TGI (HCC-2998 colon) of the same compound?
Its TGI is greater than 10 µM.

And the TGI (HCT-116 colon)?
Its TGI is greater than 10 µM.

What about the TGI (HCT-15 colon) of the same compound?
The TGI was greater than 10 µM.

And the TGI (HL-60(TB) leukemia)?
Its TGI is greater than 10 µM.

What about the TGI (HOP-62 NSCLC) of the same compound?
The TGI was greater than 10 µM.

And the TGI (HOP-92 NSCLC)?
Its TGI is greater than 10 µM.

And the TGI (HS 578T breast)?
Its TGI is greater than 10 µM.

What about the TGI (HT29 colon) of the same compound?
Its TGI is greater than 10 µM.

And the TGI (IGROV1 ovarian)?
The TGI was greater than 10 µM.

And the TGI (K-562 leukemia)?
The TGI was greater than 10 µM.

And the TGI (KM12 colon)?
The TGI was greater than 10 µM.

And the TGI (LOX IMVI melanoma)?
Its TGI is greater than 10 µM.

And the TGI (M14 melanoma)?
The TGI was greater than 10 µM.

What about the TGI (MALME-3M melanoma) of the same compound?
Its TGI is greater than 10 µM.

What about the TGI (MCF7 breast) of the same compound?
Its TGI is greater than 10 µM.

And the TGI (MDA-MB-231 breast)?
The TGI was greater than 10 µM.

What about the TGI (MDA-MB-435) of the same compound?
Its TGI is greater than 10 µM.

What about the TGI (MDA-N) of the same compound?
The TGI was greater than 10 µM.

What about the TGI (MOLT-4 leukemia) of the same compound?
The TGI was greater than 10 µM.

What about the TGI (NCI-H226 lung) of the same compound?
Its TGI is greater than 10 µM.

And the TGI (NCI-H23 lung)?
Its TGI is greater than 10 µM.

And the TGI (NCI-H460 lung)?
The TGI was greater than 10 µM.

What about the TGI (NCI-H522 lung) of the same compound?
Its TGI is greater than 10 µM.

What about the TGI (NCI/ADR-RES ovarian) of the same compound?
The TGI was greater than 10 µM.

And the TGI (OVCAR-4 ovarian)?
Its TGI is greater than 10 µM.

What about the TGI (OVCAR-8 ovarian) of the same compound?
Its TGI is greater than 10 µM.

What about the TGI (PC-3 prostate) of the same compound?
The TGI was greater than 10 µM.

And the TGI (RPMI-8226 leukemia)?
The TGI was greater than 10 µM.

What about the TGI (RXF 393 renal) of the same compound?
The TGI was greater than 10 µM.

And the TGI (SF-268 CNS)?
Its TGI is greater than 10 µM.

What about the TGI (SF-295 CNS) of the same compound?
Its TGI is greater than 10 µM.

What about the TGI (SF-539 CNS) of the same compound?
Its TGI is greater than 10 µM.

And the TGI (SK-MEL-28 melanoma)?
The TGI was greater than 10 µM.

And the TGI (SK-MEL-5 melanoma)?
The TGI was greater than 10 µM.

What about the TGI (SK-OV-3 ovarian) of the same compound?
The TGI was greater than 10 µM.

What about the TGI (SN12C renal) of the same compound?
Its TGI is greater than 10 µM.

And the TGI (SNB-19 CNS)?
The TGI was greater than 10 µM.

And the TGI (SNB-75 CNS)?
The TGI was greater than 10 µM.

And the TGI (SR leukemia)?
The TGI was greater than 10 µM.

What about the TGI (SW-620 colon) of the same compound?
Its TGI is greater than 10 µM.

What about the TGI (T-47D breast) of the same compound?
Its TGI is greater than 10 µM.

And the TGI (TK-10 renal)?
Its TGI is greater than 10 µM.

What about the TGI (UACC-257 melanoma) of the same compound?
The TGI was greater than 10 µM.

What about the TGI (UACC-62 melanoma) of the same compound?
The TGI was greater than 10 µM.

What about the TGI (UO-31 renal) of the same compound?
Its TGI is greater than 10 µM.
